The test system of assay [1] is NCI-H1373. The experiment in a line: Downregulation of c-MYC mRNA expression level in human NCI-H1373 cells at 0.1 to 1 uM for 24 hrs by qRT-PCR analysis. In kind it is functional, cell-based. As to conditions: dose 0.1-1 µM. On the technique in general: Real-time PCR tracks product formation cycle by cycle.
For assay [2], the system named is NCI-H2347. The experiment in a line: Downregulation of c-MYC mRNA expression level in human NCI-H2347 cells at 0.1 to 1 uM for 24 hrs by qRT-PCR analysis. Format: functional, cell-based. As to conditions: dose 0.1-1 µM.
Assay [3] concerns A549. The experiment in a line: Induction of apoptosis in human A549 cells assessed as viable cells at 0.5 uM for 24 hrs by annexin V-PI staining based flow cytometric analysis (reference value: 96%). In kind it is functional. As to conditions: read-out: Activity. On the technique in general: A flow cytometer gives signals particle by particle.
In a further assay the test system is NCI-H23. The experiment in a line: Downregulation of c-MYC protein expression level in human NCI-H23 cells at 1 uM for 24 hrs by […] analysis. Format: functional, cell-based.
Assay [4] relates to A549. The experiment in a line: Induction of apoptosis in human A549 cells assessed as viable cells at 2.5 uM for 24 hrs by annexin V-PI staining based flow cytometric analysis (reference value: 96%). In kind it is functional. The following applies: read-out: Activity.
Assay [5] deals with DV-90. The experiment in a line: Induction of apoptosis in human DV-90 cells assessed as late apoptotic cells at 0.5 uM for 24 hrs by annexin V-PI staining based flow cytometric analysis (reference value: 11.4%). Format: functional.
Assay [6] deals with A549. The experiment in a line: Induction of cell cycle arrest in human A549 cells assessed as accumulation of cells at S phase at 0.1 uM for 24 hrs by Click-iT EdU Alexa Fluor 647 flow cytometric assay kit analysis (reference value: 35%). In kind it is functional.
Assay [7] relates to A549. The experiment in a line: Induction of cell cycle arrest in human A549 cells assessed as accumulation of cells at G0/G1 phase at 0.5 uM for 24 hrs by Click-iT EdU Alexa Fluor 647 flow cytometric assay kit analysis (reference value: 61%). Format: functional.
The test system of assay [8] is NCI-H2347. The experiment in a line: Downregulation of XIAP protein expression level in human NCI-H2347 cells at 1 uM for 24 hrs by […] analysis. In kind it is functional, cell-based.
Assay [9] deals with NCI-H1373. The experiment in a line: Induction of cell cycle arrest in human NCI-H1373 cells assessed as accumulation of cells at G0/G1 phase at 0.25 uM for 24 hrs by Click-iT EdU Alexa Fluor 647 flow cytometric assay kit analysis (reference value: 40%). Format: functional.
In assay [10] the test system is DV-90. The experiment in a line: Downregulation of XIAP mRNA expression level in human DV-90 cells at 0.1 to 1 uM for 24 hrs by qRT-PCR analysis. Format: functional, cell-based. The following applies: dose 0.1-1 µM.
The test system of assay [11] is NCI-H2347. The experiment in a line: Downregulation of c-MYC protein expression level in human NCI-H2347 cells at 1 uM for 24 hrs by […] analysis. In kind it is functional, cell-based.
Assay [12] has as its system NCI-H460. The experiment in a line: Induction of apoptosis in human NCI-H460 cells assessed as viable cells at 0.5 uM for 24 hrs by annexin V-PI staining based flow cytometric analysis (reference value: 94%). In kind it is functional. As to conditions: read-out: Activity.
Assay [13] deals with DV-90. The experiment in a line: Induction of cell cycle arrest in human DV-90 cells assessed as accumulation of cells at G0/G1 phase at 0.25 uM for 24 hrs by Click-iT EdU Alexa Fluor 647 flow cytometric assay kit analysis (reference value: 44%). In kind it is functional.
Assay [14] has as its system A549. The experiment in a line: Induction of cell cycle arrest in human A549 cells assessed as accumulation of cells at G0/G1 phase at 1 uM for 24 hrs by Click-iT EdU Alexa Fluor 647 flow cytometric assay kit analysis (reference value: 61%). Format: functional.
Assay [15] has as its system DV-90. The experiment in a line: Induction of apoptosis in human DV-90 cells assessed as early apoptotic cells at 0.5 uM for 24 hrs by annexin V-PI staining based flow cytometric analysis (reference value: 1.7%). In kind it is functional.
A further assay has as its system SK-LU-1. The experiment in a line: Downregulation of XIAP mRNA expression level in human SK-LU-1 cells at 0.1 to 1 uM for 24 hrs by qRT-PCR analysis. Format: functional, cell-based. The following applies: dose 0.1-1 µM.
Assay [16] concerns NCI-H1373. The experiment in a line: Induction of cell cycle arrest in human NCI-H1373 cells assessed as accumulation of cells at S phase at 0.25 uM for 24 hrs by Click-iT EdU Alexa Fluor 647 flow cytometric assay kit analysis (reference value: 45%). Format: functional.
Assay [17] deals with NCI-H1373. The experiment in a line: Induction of cell cycle arrest in human NCI-H1373 cells assessed as accumulation of cells at G2/M phase at 0.25 uM for 24 hrs by Click-iT EdU Alexa Fluor 647 flow cytometric assay kit analysis (reference value: 13%). In kind it is functional.
The subject of assay [18] is DV-90. The experiment in a line: Downregulation of FLIP mRNA expression level in human DV-90 cells at 0.1 to 1 uM for 24 hrs by qRT-PCR analysis. In kind it is functional, cell-based. As to conditions: dose 0.1-1 µM.
The subject of assay [19] is NCI-H460. The experiment in a line: Downregulation of FLIP mRNA expression level in human NCI-H460 cells at 0.1 to 1 uM for 24 hrs by qRT-PCR analysis. Format: functional, cell-based. As to conditions: dose 0.1-1 µM.
Assay [20] relates to A549. The experiment in a line: Induction of cell cycle arrest in human A549 cells assessed as accumulation of cells at G2/M phase at 0.25 uM for 24 hrs by Click-iT EdU Alexa Fluor 647 flow cytometric assay kit analysis (reference value: 3%). In kind it is functional.
Assay [21] relates to NCI-H1373. The experiment in a line: Induction of TRAIL dependent apoptosis in human NCI-H1373 cells assessed as late apoptotic cells at 1 uM by annexin V-PI staining based flow cytometric analysis (reference value: 8.3%). Format: functional.
Assay [22] deals with NCI-H1373. The experiment in a line: Downregulation of c-MYC protein expression level in human NCI-H1373 cells at 1 uM for 24 hrs by […] analysis. In kind it is functional, cell-based.
The test system of assay [23] is NCI-H460. The experiment in a line: Induction of cell cycle arrest in human NCI-H460 cells assessed as accumulation of cells at G0/G1 phase at 0.1 uM for 24 hrs by Click-iT EdU Alexa Fluor 647 flow cytometric assay kit analysis (reference value: 45%). Format: functional.
The subject of assay [24] is DV-90. The experiment in a line: Induction of cell cycle arrest in human DV-90 cells assessed as accumulation of cells at S phase at 0.25 uM for 24 hrs by Click-iT EdU Alexa Fluor 647 flow cytometric assay kit analysis (reference value: 30%). In kind it is functional.
In assay [25] the test system is DV-90. The experiment in a line: Induction of cell cycle arrest in human DV-90 cells assessed as accumulation of cells at G2/M phase at 0.1 uM for 24 hrs by Click-iT EdU Alexa Fluor 647 flow cytometric assay kit analysis (reference value: 25%). In kind it is functional.
The subject of assay [26] is NCI-H1373. The experiment in a line: Induction of cell cycle arrest in human NCI-H1373 cells assessed as accumulation of cells at G0/G1 phase at 0.1 uM for 24 hrs by Click-iT EdU Alexa Fluor 647 flow cytometric assay kit analysis (reference value: 45%). Format: functional.
Assay [27] deals with A549. The experiment in a line: Induction of apoptosis in human A549 cells assessed as early apoptotic cells at 2.5 uM for 24 hrs by annexin V-PI staining based flow cytometric analysis (reference value: 0.2%). In kind it is functional.
In assay [28] the test system is DV-90. The experiment in a line: Induction of cell cycle arrest in human DV-90 cells assessed as accumulation of cells at G2/M phase at 1 uM for 24 hrs by Click-iT EdU Alexa Fluor 647 flow cytometric assay kit analysis (reference value: 21%). Format: functional.
Assay [29] deals with A549. The experiment in a line: Induction of apoptosis in human A549 cells assessed as viable cells at 2.5 uM for 24 hrs by annexin V-PI staining based flow cytometric analysis (reference value: 97.7%). As to conditions: read-out: Activity. In kind it is functional.
Assay [30] concerns DV-90. The experiment in a line: Induction of cell cycle arrest in human DV-90 cells assessed as accumulation of cells at G0/G1 phase at 0.25 uM for 24 hrs by Click-iT EdU Alexa Fluor 647 flow cytometric assay kit analysis (reference value: 47%). In kind it is functional.

In ChEMBL document CHEMBL5712891, “Inhibition of BET bromodomain-dependent XIAP and FLIP expression sensitizes KRAS-mutated NSCLC to pro-apoptotic agents” (Cell Death Dis, 2016) one finds Activity and viability data, which are given here for three compounds.

Structures are written as SMILES. Calls of active or inactive are those of the source. The calls are words filed in the database; no cut-off is given here.

`Cc1sc2c(c1C)C(c1ccc(Cl)cc1)=N[C@@H](CC(=O)OC(C)(C)C)c1nnc(C)n1-2`: the result with NCI-H1373 [1], in the assay on NCI-H2347 [2], in the assay with NCI-H23, in the assay on NCI-H2347 [8], in the assay with DV-90 [10] and in the assay with NCI-H2347 [11] was Active. The result in the assay with SK-LU-1, with DV-90 [18], with NCI-H460 [19] and in the assay on NCI-H1373 [22] was Active. The viability at 0.5 µM with A549 [3] is 97.2%; in the assay on NCI-H460 [12] it was 91.2%. In addition, the viability at 2.5 µM in the assay with A549 [4] stood at 97%. Moreover, the Activity was determined as 10.7% in the assay with DV-90 [5]; 36% with A549 [6]; 63% with A549 [7]; 60% with NCI-H1373 [9]; 45% in the assay on DV-90 [13]; 64% in the assay on A549 [14]. Further, the Activity in the assay with DV-90 [15] is 2.6%; in the assay on NCI-H1373 [16] it was 21%; in the assay with NCI-H1373 [17], 16%; with A549 [20], 3%; with NCI-H1373 [21], 14%.

In the case of `CCNC(=O)C[C@@H]1N=C(c2ccc(Cl)cc2)c2cc(OC)ccc2-n2c(C)nnc21` [MOLIBRESIB], the Activity came to 45% in the assay on NCI-H460 [23], 22% in the assay with DV-90 [24], 31% in the assay with DV-90 [25] and 46% in the assay on NCI-H1373 [26].

With `Cc1sc2c(c1C)C(c1ccc(Cl)cc1)=N[C@@H](CC(=O)Nc1ccc(O)cc1)c1nnc(C)n1-2` [BIRABRESIB], the Activity with A549 [27] is reported as 0.1%; in the assay on DV-90 [28] it was 22%; in the assay with DV-90 [30], 52%. For the same compound, in the assay on A549 [29], the viability at 2.5 µM was determined as 97.3%.
